Data reported in patent US20240408143A1, “METHODS FOR CULTURING MESENCHYMAL STEM CELLS, COMPOSITIONS AND IMPLEMENTATIONS THEREOF” (Pandorum Technologies Private Limited, priority 2021, published 2024).
Structures can show the parent of a compound that is named as a salt.

How the values were obtained:
hBM-MSCs [1] = experiment: Yield of exosomes from primed hBM-MSCs; format: cell-based, human; conditions: priming of hBM-MSCs, compared to untreated (naïve) and other priming agents
Description: hBM-MSC was cultured in xeno-free media recommended by the manufacturer, hBM-MSC cells were grown to reach confluency of (80-90) % and treated with a Nrf2 activator (DMF-100 μM) for 24 hours before shifting and maintaining the cells in EV collect media for 24-72 hours (see example 3.3). After 72 hours, condition media was collected, and exosome isolation was performed using iodixanol density gradient protocol (as described in example 4.4).

hBM-MSCs [2] = experiment: Secretome analysis of primed hBM-MSCs by ELISA; format: cell-based, human; conditions: vs control/untreated
Description: hBM-MSCs were cultured in xeno free media along with a replacement of 10% and 20% of CSSC-derived conditioned media (CSSC-CM) to reach a confluence of 80-90%. The media was then subsequently shifted to EV collect for 24-72 hours and primed conditioned media was collected (as described in example 1.1, and 1.2), and exosome isolation was performed by iodixanol density gradient method (as described in example 4.4) and enriched exosomes were obtained. Homogenous fraction F9 was considered for further functional analysis. The secretome analysis was performed using ELISA, detecting the levels of HGF, VEGF, sFLT1, IL-6, NGF.
hBM-MSCs were primed with various priming agents (small molecules) and the secretome was collected (see example 3.2-3.6). The secretome analysis was performed using ELISA, and the levels of HGF, VEGF, NGF, IL-6, sFLT1, SDF1 were detected. FIGS. 6A-6F depict bar graphs of the quantification of the secreted protein levels of HGF, VEGF, NGF, IL-6, sFLT1, and SDF-1 from hBM-MSCs primed with curcumin, 4-OI, DMF, or the combination of curcumin conditioned media and DMF.

[3] = system: NASH-induced liver spheroids; experiment: Treatment of NASH-induced human liver spheroids, marker staining and albumin ELISA; format: cell-based; conditions: treatment at D17-D19 after NASH induction, ELISA at 24, 48, 72 hours; HGF 40 ng/ml
Description: The protocol for generating human liver spheroids and inducing a NASH phenotype in the human liver spheroids for the present study was as follows: A mix of primary hepatocytes and liver stellate cells from human donors were co-cultured at a 70:30 ratio (70 hepatocytes to 30 liver stellate cells). The cell mixture was seeded on ultra-low attachment plates and cultured to form viable liver spheroids. […] The NASH induction protocol was as follows: On day 7 post seeding, the spheroids were treated with 600 μM free fatty acid (FFA) mixture consisting of Oleic acid and Palmitic acid at a weight ratio of 2:1 for 6 days with media change every other day. After 6 days of FFA treatment (13 days post seeding), 20 ng/mL of TGF β1 was added to the FFA-containing media for a further two days of combined FFA and TGFβ1 treatment. At day 15 post seeding (after 8 days of FFA treatment and 2 days of combined FFA and TGFβ1 treatment), the media was changed to TGF β1-only treatment, with 20 ng/mL TGF β1 and without the FFA mix. […], at day 19 post seeding, the spheroids and the conditioned media were harvested for characterization. […]
Secreted albumin levels is another marker of liver health. […] The secreted albumin in the culture medium was quantified based on ELISA measurements. […]

[4] = system: NASH-induced liver spheroids; experiment: Microarray gene expression profiling of NASH-induced human liver spheroids; format: cell-based
Description: As described herein above and shown in FIGS. 15A-15F, the effect on the liver spheroids of treatment with disease-state induction agents such the FFA mixture or TGFβ1 and/or with therapeutic agents such as the exosomes can be assayed one marker (or a new markers) at a time with techniques such as immune-staining and ELISA. However, a much larger count (dozens, hundreds, thousands) of markers may be assay simultaneously using high-throughput techniques, such as microarray or next generation sequencing (NGS). FIG. 16A depicts a heatmap of changes in gene expression of liver spheroids based on microarray hybridization data. Microarray hybridization data was acquired as follows: After growth of liver spheroid samples and treatment with NASH-induction agents and/or with therapeutic agents as describe above, the liver spheroids were isolated, lysed, and mRNA was isolated, then converted to sequences of complementary DNA (cDNA). The cDNA samples were then applied to an Agilent® microarray and read with a microarray reader. The microarray analysis was performed for a predetermined transcriptome set of 22,473 genes (included in the microarray) using standard methods to obtain normalized expression values. […]
The gene expression levels of the liver spheroids in each of the different liver spheroid states were also represented and stored, respectively, as feature vectors (“spheroid state feature vectors”), with each element of a given spheroid state feature vector being a level of expression of one of the genes assayed in the microarray. The similarity (or lack of similarity) of the gene expression profile between different states was determined based on a measure of distance between pairs of feature vectors in an n-dimensional space, n being the number of genes represented in each of the feature vectors. […]

MSCs [5] = experiment: MSC viability by MTT assay after ATRA treatment; format: cell-based; conditions: 0.1 μM to 500 μM for 24 and 48 hours; all treated MSCs except 0.1 μmol/L
Description: (§1) ATRA is found to increase the viability of MSCs. This was ascertained as the MSCs were treated with various concentrations of ATRA (0.1 μM to 500 μM) for 24 and 48 hours and their viability were examined by MTT assay. […] ATRA elevated the PGE2 levels. […] ATRA increased the expression of genes involved in MSC survival, migration and angiogenesis.

MSCs [6] = experiment: Quantitative real time-PCR of MSCs treated with ATRA; format: cell-based; conditions: 1, 10, 100 μmol/L
Description: as §1

MSCs [7] = experiment: PGE2 levels in MSCs pre-treated with ATRA; format: cell-based; conditions: 1, 10, 100 μmol/L, dose-dependent
Description: as §1

| Compound | yield of exosomes (hBM-MSCs [1]) | secreted HGF level (hBM-MSCs [2]) | secreted IL-6 level (hBM-MSCs [2]) | secreted NGF level (hBM-MSCs [2]) | further results |
| --- | --- | --- | --- | --- | --- |
| C=C(CC(=O)OCCCCCCCC)C(=O)O [4-OI, 4 Octyl itaconate] | higher yield | significant increase | attenuated | enhanced | – |
| HGF: 40 ng/ml hepatic growth factor used as comparison treatment of NASH-induced liver spheroids | – | – | – | – | albumin secretion [3]: did not result in increased; recovery based on gene expression patterns, Jaccard Similarity Index coordinates ([4]; FIGS. 18A-18C gene sets): substantially more similar to the diseased state; gene expression profile of 287 liver specific genes, cluster analysis ([4]; treatment after NASH induction): most closely resembled the gene expression profile of the Diseased liver spheroid state; gene expression profile, principal component analysis ([4]; treatment at D17-D19 after NASH induction, HGF 40 ng/ml): substantially unchanged |
| CC1=C(/C=C/C(C)=C/C=C/C(C)=C/C(=O)O)C(C)(C)CCC1 [ATRA, all-trans retinoic acid] | – | – | – | – | MSC viability (MSCs [5]): significantly higher; mRNA levels of COX-2, HIF-1, CXCR4, CCR2, VEGF, Ang-2 and Ang-4 (MSCs [6]): elevated in a dose dependent manner; PGE2 levels (MSCs [7]): significantly increased |
| COc1cc(/C=C/C(=O)CC(=O)/C=C/c2ccc(O)c(OC)c2)ccc1O [curcumin, Curcumin] | – | – | attenuated | – | – |
| COC(=O)/C=C/C(=O)OC [DMF, Dimethyl fumarate] | higher yield | significant increase | attenuated | increase | secreted SDF-1 level (hBM-MSCs [2]): increase; secreted sFLT1 level (hBM-MSCs [2]): increase |
